# Molecular target: acetylcholinesterase from Electrophorus electricus (eelAChE) immobilized on magnetic beads (Electrophorus electricus, UniProt O42275)
# Test: Ligand fishing assay using eelAChE-MB
# Type: binding
# Details: 100 nM reference compounds, individually and as a mixture
# acetylcholinesterase from Electrophorus electricus (eelAChE) immobilized on magnetic beads, sequence (O42275 24-633): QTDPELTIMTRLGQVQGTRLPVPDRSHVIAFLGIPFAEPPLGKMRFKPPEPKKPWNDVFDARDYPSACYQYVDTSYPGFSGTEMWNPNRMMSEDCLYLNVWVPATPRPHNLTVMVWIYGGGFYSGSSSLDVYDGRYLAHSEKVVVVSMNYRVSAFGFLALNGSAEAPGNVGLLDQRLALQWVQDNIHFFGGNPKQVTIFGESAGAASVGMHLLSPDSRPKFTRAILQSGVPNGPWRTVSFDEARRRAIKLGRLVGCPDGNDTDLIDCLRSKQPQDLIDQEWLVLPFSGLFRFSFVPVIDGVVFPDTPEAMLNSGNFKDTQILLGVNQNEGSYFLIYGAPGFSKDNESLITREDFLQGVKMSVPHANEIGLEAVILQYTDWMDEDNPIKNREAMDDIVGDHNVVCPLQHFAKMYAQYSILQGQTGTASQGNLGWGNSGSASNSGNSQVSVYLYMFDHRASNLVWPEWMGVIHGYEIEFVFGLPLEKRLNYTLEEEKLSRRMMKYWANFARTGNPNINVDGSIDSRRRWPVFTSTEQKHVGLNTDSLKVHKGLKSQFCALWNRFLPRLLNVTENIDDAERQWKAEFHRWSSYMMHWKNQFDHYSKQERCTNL
row,Compound,Presence in supernatants S-1 (unbound) and S-2 (eluted)
1,CNC1(c2ccccc2Cl)CCCCC1=O (centres unmarked) [ketamine],only present in S-1
2,CC(CCc1ccccc1)NCC(O)c1ccc(O)c(C(N)=O)c1 (centres unmarked) [labetalol],only present in S-1
